Measurements taken from ChEMBL document CHEMBL4417631, “Oral peptide inhibitors of interleukin-23 receptor and their use to treat inflammatory bowel diseases” (2017).
*1 amine or outer side, *2 acyl side, *3 side chain or, on linkers, in order; H or OH if unused. Where a SMILES comes first, the peptide text is derived from it. Bridges are numbered along the chain shown (N, C = ends). [ ]: non-standard residue; d: D form. The star is where a group is joined. Abu(4-yl) = O=C([C@H](CC[*:3])N[*:1])[*:2]; AEF = NCCOc1ccc(C[C@H](N)C(=O)O)cc1; hLeu = CC(C)CC[C@H](N)C(=O)O; αMeK = C[C@](N)(CCCCN)C(=O)O; Dap = NC[C@H](N)C(=O)O; OBn = c1ccc(CO*)cc1

Molecular target: T1, Interleukin-23 receptor (Homo sapiens, UniProt Q5VWK5)
T1 sequence (Q5VWK5 whole entry): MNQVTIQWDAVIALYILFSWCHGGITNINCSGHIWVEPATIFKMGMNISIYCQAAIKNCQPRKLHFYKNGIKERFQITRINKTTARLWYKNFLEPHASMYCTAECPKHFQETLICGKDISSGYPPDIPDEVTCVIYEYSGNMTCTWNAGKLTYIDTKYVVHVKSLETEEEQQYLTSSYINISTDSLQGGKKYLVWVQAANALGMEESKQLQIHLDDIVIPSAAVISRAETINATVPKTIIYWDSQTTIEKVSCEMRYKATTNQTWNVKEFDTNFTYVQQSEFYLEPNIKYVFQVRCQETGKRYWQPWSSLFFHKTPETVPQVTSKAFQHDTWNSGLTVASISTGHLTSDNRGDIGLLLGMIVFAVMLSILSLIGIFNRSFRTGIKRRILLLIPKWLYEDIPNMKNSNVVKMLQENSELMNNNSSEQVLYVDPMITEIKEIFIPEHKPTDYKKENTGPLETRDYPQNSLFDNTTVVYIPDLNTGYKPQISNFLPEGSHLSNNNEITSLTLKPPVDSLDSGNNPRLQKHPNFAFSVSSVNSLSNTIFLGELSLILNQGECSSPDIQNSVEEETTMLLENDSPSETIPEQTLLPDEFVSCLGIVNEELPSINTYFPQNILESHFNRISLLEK
Assay: Inhibition of interleukin-23 binding to human interleukin-23 receptor incubated for 2 hrs by competitive binding ELISA

| Compound | IC50 |
| --- | --- |
| CC(C)[C@H](NC(=O)[C@H](Cc1c[nH]c2ccccc12)NC(=O)[C@H](CC(=O)O)NC(=O)[C@H](C)NC(=O)[C@@H](N)CS)C(=O)N[C@@H](CS)C(=O)N[C@@H](Cc1ccc(O)cc1)C(=O)N1Cc2ccccc2C[C@H]1C(=O)N[C@@H](Cc1cnc[nH]1)C(=O)N[C@H](C(=O)N[C@@H](Cc1ccccc1)C(=O)NCC(N)=O)[C@@H](C)O | > 1000 nM |
| CC(=O)N[C@@H](CS)C(=O)N[C@@H](CCC(N)=O)C(=O)N[C@H](C(=O)N[C@@H](Cc1c[nH]c2ccccc12)C(=O)N[C@@H](CCC(N)=O)C(=O)N[C@@H](CS)C(=O)N[C@@H](Cc1ccc(O)cc1)C(=O)N[C@@H](Cc1c[nH]c2ccccc12)C(=O)N[C@@H](CCCNC(=N)N)C(=O)N[C@@H](CN)C(=O)N[C@@H](CC(N)=O)C(=O)NCC(=O)NCCOCC(=O)N[C@H](CCCCN)C(N)=O)[C@@H](C)O | < 500 nM |
| CC(C)[C@H](NC(=O)[C@H](Cc1c[nH]c2ccccc12)NC(=O)[C@H](CC(=O)O)NC(=O)[C@H](C)NC(=O)[C@@H](N)CS)C(=O)N[C@@H](CS)C(=O)N[C@@H](Cc1ccc(O)cc1)C(=O)N[C@@H](Cc1c[nH]c2ccccc12)C(N)=O | > 1000 nM |
| COc1ccc(C[C@H](NC(=O)[C@@H](NC(=O)[C@H](CCC(N)=O)NC(=O)[C@H](Cc2c[nH]c3ccccc23)NC(=O)[C@@H](NC(=O)[C@H](CCC(N)=O)NC(=O)[C@@H](NC(=O)Cc2ccc(-c3ccccc3)cc2)C(C)(C)S)[C@@H](C)O)C(C)(C)S)C(=O)N[C@@H](Cc2ccc3ccccc3c2)C(=O)N[C@@](C)(CCCCN)C(=O)N[C@@H](CCCCNC(C)=O)C(=O)N[C@@H](CC(N)=O)C(=O)NCC(N)=O)cc1 | 100 to 1000 nM |
| C[C@@H](O)[C@H](NC(=O)[C@H](CCCNC(=N)N)NC(=O)[C@@H](N)CS)C(=O)N[C@@H](Cc1c[nH]c2ccccc12)C(=O)N[C@@H](CCC(N)=O)C(=O)N[C@@H](CS)C(=O)N[C@@H](Cc1ccc(O)cc1)C(=O)N[C@@H](Cc1c[nH]c2ccccc12)C(=O)N[C@@H](CCCNC(=N)N)C(=O)N[C@@H](CCCCN)C(=O)N[C@@H](Cc1ccccc1)C(=O)NCC(N)=O (H-CRTWQCYWRKFG-NH2) | < 500 nM |
| C[C@H](NC(=O)[C@@H](N)CS)C(=O)N[C@@H](CC(=O)O)C(=O)N[C@@H](Cc1c[nH]c2ccccc12)C(=O)N[C@@H](CS)C(=O)N[C@@H](CS)C(=O)N[C@@H](Cc1ccc(O)cc1)C(=O)N[C@@H](Cc1c[nH]c2ccccc12)C(=O)N[C@@H](CS)C(=O)N[C@H](C(=O)N[C@@H](Cc1ccccc1)C(=O)NCC(N)=O)[C@@H](C)O (H-CADWCCYWCTFG-NH2) | > 1000 nM |
| CC(=O)N[C@@H](C)C(=O)N[C@@H](CS)C(=O)N[C@@H](CC(=O)O)C(=O)N[C@@H](Cc1c[nH]c2ccccc12)C(=O)N[C@H](C(=O)N[C@H](C(=O)N[C@@H](Cc1ccc(O)cc1)C(=O)N[C@@H](Cc1c[nH]c2ccccc12)C(=O)N[C@@H](CCCNC(=N)N)C(=O)N[C@@H](CCCCN)C(=O)N[C@@H](Cc1ccccc1)C(=O)NCC(=O)NCCOCC(=O)N[C@H](CCCCN)C(N)=O)C(C)(C)S)C(C)C | 1000 to 10000 nM |
| CC(=O)NCCCC[C@H](NC(=O)[C@](C)(CCCCN)NC(=O)[C@H](CCC(=O)OCc1ccccc1)NC(=O)[C@H](Cc1ccc(OCCN)cc1)NC(=O)[C@@H]1CSCC[C@H](NC(C)=O)C(=O)N[C@@H](CN)C(=O)N[C@@H]([C@@H](C)O)C(=O)N[C@@H](Cc2c[nH]c3ccccc23)C(=O)N[C@@H](CCC(N)=O)C(=O)N1)C(=O)N[C@@H](CC(N)=O)C(=O)NCC(N)=O (Ac-[Abu(4-yl)][Dap]TWQC[AEF]E(OBn)[αMeK]K(Ac)NG-NH2; thioether 1-6) | > 3000 nM |
| CC(=O)N[C@@H](CS)C(=O)N[C@@H](C)C(=O)N[C@@H](CC(=O)O)C(=O)N[C@@H](Cc1c[nH]c2ccccc12)C(=O)N[C@H](C(=O)N[C@@H](CS)C(=O)N[C@@H](Cc1ccc(O)cc1)C(=O)N[C@@](C)(Cc1ccc(F)cc1)C(=O)N[C@@H](CCCN)C(=O)N[C@@H](CN)C(=O)N[C@@H](Cc1ccccc1)C(=O)NCC(=O)NCCOCC(=O)N[C@H](CCCCN)C(N)=O)C(C)C | > 30000 nM |
| CC(=O)N[C@H]1CCSC[C@@H](C(=O)N[C@@H](Cc2ccc(OCCN)cc2)C(=O)N[C@@H](Cc2ccc3ccccc3c2)C(=O)N[C@@](C)(CCCCN)C(=O)N[C@@H](CCC(=O)O)C(=O)N[C@@H](CC(N)=O)C(=O)NCC(N)=O)NC(=O)[C@H](CCC(N)=O)NC(=O)[C@H](c2ccc(OCCN)cc2)NC(=O)[C@H]([C@@H](C)O)NC(=O)[C@H](CCC(N)=O)NC1=O | > 3000 nM |
| CC(=O)N[C@@H](CS)C(=O)N[C@@H](C)C(=O)N[C@@H](CC(=O)O)C(=O)N[C@@H](Cc1c[nH]c2ccccc12)C(=O)N[C@H](C(=O)N[C@@H](CS)C(=O)N[C@@H](Cc1ccc(O)cc1)C(=O)N[C@@H](Cc1c[nH]c2ccccc12)C(=O)N[C@@H](Cc1cnc[nH]1)C(=O)N[C@H](C(=O)N[C@@H](Cc1ccccc1)C(=O)N[C@H](CCCCN)C(=O)O)[C@@H](C)O)C(C)C | > 1000 nM |
| CC(=O)N[C@@H](CS)C(=O)N[C@@H](CCC(N)=O)C(=O)N[C@H](C(=O)N[C@@H](CCC(=O)O)C(=O)N[C@@H](CCC(N)=O)C(=O)N[C@@H](CS)C(=O)N[C@@H](Cc1ccc(O)cc1)C(=O)N[C@@H](Cc1c[nH]c2ccccc12)C(=O)N[C@@H](CCC(C)C)C(=O)N[C@@H](CCC(=O)O)C(=O)N[C@@H](CC(N)=O)C(=O)NCC(N)=O)[C@@H](C)O (Ac-CQTEQCYW[hLeu]ENG-NH2) | > 10000 nM |
| CC(=O)N[C@@H](CS)C(=O)N[C@@H](CCCNC(=N)N)C(=O)N[C@@H](CC(=O)O)C(=O)N[C@@H](Cc1c[nH]c2ccccc12)C(=O)N[C@@H](CCC(N)=O)C(=O)N[C@@H](CS)C(=O)N[C@@H](Cc1ccc(O)cc1)C(=O)N[C@@H](Cc1c[nH]c2ccccc12)C(=O)N(C)[C@@H](CCCNC(=N)N)C(=O)N[C@@H](CCCCN)C(=O)N[C@@H](Cc1ccccc1)C(=O)NCC(=O)NCCOCCC(=O)N[C@H](CCCCN)C(N)=O | > 1000 nM |
| CC(C)[C@H](NC(=O)[C@H](Cc1c[nH]c2ccccc12)NC(=O)[C@H](CC(=O)O)NC(=O)[C@H](C)NC(=O)[C@@H](N)CS)C(=O)N[C@@H](CS)C(=O)N[C@@H](Cc1ccc(O)cc1)C(=O)N[C@@H](Cc1cccc2ccccc12)C(=O)N(C)[C@@H](Cc1cnc[nH]1)C(=O)N[C@H](C(=O)N[C@@H](Cc1ccccc1)C(=O)O)[C@@H](C)O | > 1000 nM |
| CC(=O)N[C@@H](CS)C(=O)N[C@H](C(=O)N[C@H](C(=O)N[C@@H](Cc1c[nH]c2ccccc12)C(=O)N[C@@H](CCC(=O)O)C(=O)N[C@@H](CS)C(=O)N[C@@H](Cc1ccc(O)cc1)C(=O)N[C@@H](Cc1c[nH]c2ccccc12)C(=O)N[C@@H](Cc1cnc[nH]1)C(=O)N[C@@H](CCC(=O)O)C(=O)N[C@@H](Cc1ccc(O)cc1)C(=O)NCC(N)=O)[C@@H](C)O)[C@@H](C)O (Ac-CTTWECYWHEYG-NH2) | < 500 nM |
| CC(=O)N[C@@H](CS)C(=O)N[C@@H](CCC(N)=O)C(=O)N[C@H](C(=O)N[C@@H](Cc1c[nH]c2ccccc12)C(=O)N[C@@H](CCC(N)=O)C(=O)N[C@@H](CS)C(=O)N[C@@H](Cc1ccc(O)cc1)C(=O)N[C@@](C)(Cc1ccccc1)C(=O)N[C@@H](CCC(C)C)C(=O)N[C@@H](CCC(=O)O)C(=O)N[C@@H](CC(N)=O)C(=O)NCC(N)=O)[C@@H](C)O | 30000 nM |
| CC(=O)N[C@@H](CS)C(=O)N[C@@H](CCCNC(=N)N)C(=O)N[C@@H](CC(=O)O)C(=O)N[C@@H](Cc1c[nH]c2ccccc12)C(=O)N[C@@H](CCC(N)=O)C(=O)N[C@@H](CS)C(=O)N[C@@H](Cc1ccc(O)cc1)C(=O)N[C@@H](Cc1c[nH]c2ccccc12)C(=O)N[C@H](CCCNC(=N)N)C(=O)N[C@H](CCCCN)C(=O)N[C@@H](Cc1ccccc1)C(=O)NCC(=O)NCCOCCC(=O)N[C@H](CCCCN)C(N)=O | > 1000 nM |
| CC(=O)N[C@@H](CS)C(=O)N[C@@H](C)C(=O)N[C@@H](CC(=O)O)C(=O)N[C@@H](Cc1c[nH]c2ccccc12)C(=O)N[C@H](C(=O)N[C@@H](CS)C(=O)N[C@@H](Cc1ccc(O)cc1)C(=O)N[C@@H](Cc1c[nH]c2ccccc12)C(=O)N[C@@H](Cc1cnc[nH]1)C(=O)N[C@@H](CCCNC(=N)N)C(=O)N[C@@H](CO)C(=O)N[C@H](C(=O)NCC(=O)NCC(=O)N[C@@H](CCC(N)=O)C(=O)N[C@@H](Cc1cnc[nH]1)C(N)=O)[C@@H](C)O)C(C)C (Ac-CADWVCYWHRSTGGQH-NH2) | 500 to 1000 nM |
| CC(=O)N[C@@H](CS)C(=O)N[C@@H](CCC(N)=O)C(=O)N[C@H](C(=O)N[C@@H](Cc1c[nH]c2ccccc12)C(=O)N[C@@H](CCC(N)=O)C(=O)N[C@@H](CS)C(=O)N[C@@H](Cc1ccc(O)cc1)C(=O)N[C@@](C)(Cc1c[nH]c2ccccc12)C(=O)N[C@@H](CCC(C)C)C(=O)N[C@@H](CCC(=O)O)C(=O)N[C@@H](CCC(N)=O)C(=O)NCC(N)=O)[C@@H](C)O | > 30000 nM |
| CC(=O)N[C@@H](CS)C(=O)N[C@@H](CCC(N)=O)C(=O)N[C@H](C(=O)N[C@@H](Cc1c[nH]c2ccccc12)C(=O)N[C@@H](CCC(N)=O)C(=O)N[C@@H](CS)C(=O)N[C@@H](Cc1ccc(O)cc1)C(=O)N[C@@H](Cc1c[nH]c2ccccc12)C(=O)N1CCC[C@H]1C(=O)N[C@@H](CCC(=O)O)C(=O)N[C@@H](CC(N)=O)C(=O)NCC(N)=O)[C@@H](C)O | > 30000 nM |
| CC(=O)N[C@@H](CS)C(=O)N[C@@H](CCCNC(=N)N)C(=O)N[C@H](C(=O)N[C@@H](Cc1c[nH]c2ccccc12)C(=O)N[C@@H](CCC(N)=O)C(=O)N[C@@H](CS)C(=O)N[C@@H](Cc1ccc(O)cc1)C(=O)N[C@@H](Cc1c[nH]c2ccccc12)C(=O)N[C@@H](Cc1cnc[nH]1)C(=O)N[C@@H](CCC(=O)O)C(=O)N[C@@H](Cc1ccc(O)cc1)C(=O)NCC(N)=O)[C@@H](C)O (Ac-CRTWQCYWHEYG-NH2) | < 500 nM |
